Results published in US20100189683A1, “Pulsatile Dosing of Gossypol for Treatment of Disease” (Ascenta Therapeutics, Inc., priority 2008, published 2010).

Test system: patients with advanced cancer
Assay: Phase I clinical trial, daily versus pulsatile dosing of (−)-gossypol: adverse events graded by NCI-CTCAE v3 (Daily N = 38, BID × 3 d N = 21, Weekly N = 12)
Format: in vivo, human
Experimental: A phase I clinical trial was carried out to compare the maximum tolerated dose and safety of daily (i.e., continuous) versus pulsatile (i.e., intermittent) dosing of (−)-gossypol in patients with advanced cancer. A secondary objective of this study was to identify any anti-tumor activity of (−)-gossypol. Patients were treated with increasing doses of (−)-gossypol according to the following dosing schedules: “Daily” dosing: 5 to 60 mg/day of (−)-gossypol on 21 days per 28 day cycle; “BID×3d” dosing: 30 to 80 mg BID of (−)-gossypol on 3 consecutive days (e.g., Monday-Tuesday-Wednesday) repeated every other week per 28 day cycle; and “Weekly” dosing: 80 to 200 mg of (−)-gossypol once weekly per 28 day cycle. Adverse events (AEs) were graded by NCI-CTCAE v3.

Cc1cc2c(C(C)C)c(O)c(O)c(C=O)c2c(O)c1-c1c(C)cc2c(C(C)C)c(O)c(O)c(C=O)c2c1O [(−)-gossypol]
6 (29) N (%): Constipation (BID × 3 d, Grade ½)
reduced percentage of AEs: Percentage of AEs, particularly Grade 3/4 AEs (pulsatile dosing (BID×3d and Weekly) as compared to continuous daily dosing)
8 (67) N (%): Fatigue/Asthenia (Weekly, Grade ½)
8 (21) N (%): Abdominal pain (Daily, Grade ½) | Cough (Daily, Grade ½)
11 (52) N (%): Any AE (BID × 3 d, Grade ¾)
19 (50) N (%): Anorexia or decreased appetite (Daily, Grade ½)
4 (33) N (%): Constipation (Weekly, Grade ½) | AST increase (Weekly, Grade ¾)
3 (8) N (%): Dry mouth (Daily, Grade ½) | Dyspnea (Daily, Grade ¾) | Hypokalemia (Daily, Grade ¾)
15 (72) N (%): Fatigue/Asthenia (BID × 3 d, Grade ½)
38 (100) N (%): Any AE (Daily, Grade ½)
2 (8) N (%): Small intestinal obstruction (ileus) (Weekly, Grade ¾)
1 (5) N (%): Abdominal discomfort (BID × 3 d, Grade ½) | Back pain (BID × 3 d, Grade ½) | Headache (BID × 3 d, Grade ½) | Hyperkalemia (BID × 3 d, Grade ½) | Hypokalemia (BID × 3 d, Grade ½) | Hyponatremia (BID × 3 d, Grade ½) | Insomnia (BID × 3 d, Grade ½) | Troponin I or T increased (BID × 3 d, Grade ½) | Anorexia or decreased appetite (BID × 3 d, Grade ¾) | Creatinine phosphokinase increase (BID × 3 d, Grade ¾) | Diarrhea (BID × 3 d, Grade ¾) | Fatigue/Asthenia (BID × 3 d, Grade ¾) | Hepatic encephalopathy (BID × 3 d, Grade ¾) | Hyperbilirubinaemia (BID × 3 d, Grade ¾) | Hyperkalemia (BID × 3 d, Grade ¾) | Hyponatremia (BID × 3 d, Grade ¾) | Pain (BID × 3 d, Grade ¾) | Pancreatitis (BID × 3 d, Grade ¾) | Pneumatosis intestinalis (BID × 3 d, Grade ¾) | Pneumonia (BID × 3 d, Grade ¾) | Renal Failure (BID × 3 d, Grade ¾) | Small intestinal obstruction (ileus) (BID × 3 d, Grade ¾)
1 (3) N (%): Flatulence (Daily, Grade ½) | Hypokalemia (Daily, Grade ½) | Hyponatremia (Daily, Grade ½) | Infection (Daily, Grade ½) | Pleural Effusion (Daily, Grade ½) | Abdominal pain (Daily, Grade ¾) | Anorexia or decreased appetite (Daily, Grade ¾) | Hyperbilirubinaemia (Daily, Grade ¾) | Hyponatremia (Daily, Grade ¾) | Infection (Daily, Grade ¾) | Mental status changes (Daily, Grade ¾) | Pneumonia (Daily, Grade ¾) | Pyrexia (Daily, Grade ¾) | Troponin I or T increased (Daily, Grade ¾)
1 (8) N (%): AST increase (Weekly, Grade ½) | Back pain (Weekly, Grade ½) | Dry mouth (Weekly, Grade ½) | Dyspnea (Weekly, Grade ½) | Flatulence (Weekly, Grade ½) | Headache (Weekly, Grade ½) | Renal Failure (Weekly, Grade ½) | Troponin I or T increased (Weekly, Grade ½) | ALT increase (Weekly, Grade ¾) | Albumin decreased (Weekly, Grade ¾) | Alkaline phosphatase increase (Weekly, Grade ¾) | Creatinine increased (Weekly, Grade ¾) | Creatinine phosphokinase increase (Weekly, Grade ¾) | Dyspnea (Weekly, Grade ¾) | Fatigue/Asthenia (Weekly, Grade ¾) | Hepatic encephalopathy (Weekly, Grade ¾) | Hypokalemia (Weekly, Grade ¾) | Infection (Weekly, Grade ¾) | Mental status changes (Weekly, Grade ¾) | Pleural Effusion (Weekly, Grade ¾) | Pneumatosis intestinalis (Weekly, Grade ¾) | Pyrexia (Weekly, Grade ¾)
8 (38) N (%): Diarrhea (BID × 3 d, Grade ½)
31 (81) N (%): Fatigue/Asthenia (Daily, Grade ½)
9 (24) N (%): Constipation (Daily, Grade ½) | Dehydration (Daily, Grade ½)
16 (76) N (%): Any AE (BID × 3 d, Grade ½)
2 (10) N (%): ALT increase (BID × 3 d, Grade ½) | AST increase (BID × 3 d, Grade ½) | Alkaline phosphatase increase (BID × 3 d, Grade ½) | Creatinine increased (BID × 3 d, Grade ½) | Dizziness (BID × 3 d, Grade ½) | Dry mouth (BID × 3 d, Grade ½) | Dysgeusia (BID × 3 d, Grade ½) | Flatulence (BID × 3 d, Grade ½) | Proteinurea (BID × 3 d, Grade ½) | Urinary Tract Infection (BID × 3 d, Grade ½) | White blood cells increased (BID × 3 d, Grade ½) | Abdominal pain (BID × 3 d, Grade ¾) | Dehydration (BID × 3 d, Grade ¾) | Vomiting (BID × 3 d, Grade ¾)
4 (19) N (%): Weight decreased (BID × 3 d, Grade ½)
2 (5) N (%): Dysgeusia (Daily, Grade ½) | Hyperbilirubinaemia (Daily, Grade ½) | Hyperkalemia (Daily, Grade ½) | Hypocalcemia (Daily, Grade ½) | Troponin I or T increased (Daily, Grade ½) | Abdominal discomfort (Daily, Grade ¾) | Dehydration (Daily, Grade ¾) | Hypocalcemia (Daily, Grade ¾) | Pleural Effusion (Daily, Grade ¾)
10 (83) N (%): Any AE (Weekly, Grade ½)
13 (34) N (%): Diarrhea (Daily, Grade ½) | Vomiting (Daily, Grade ½)
3 (25) N (%): ALT increase (Weekly, Grade ½) | Abdominal distention (Weekly, Grade ½) | Insomnia (Weekly, Grade ½) | Peripheral edema (Weekly, Grade ½)
0 N (%): Albumin decreased (BID × 3 d, Grade ½) | Cough (BID × 3 d, Grade ½) | Creatinine phosphokinase increase (BID × 3 d, Grade ½) | Hepatic encephalopathy (BID × 3 d, Grade ½) | Hyperbilirubinaemia (BID × 3 d, Grade ½) | Hypocalcemia (BID × 3 d, Grade ½) | Infection (BID × 3 d, Grade ½) | Mental status changes (BID × 3 d, Grade ½) | Pancreatitis (BID × 3 d, Grade ½) | Peripheral edema (BID × 3 d, Grade ½) | Pleural Effusion (BID × 3 d, Grade ½) | Pneumatosis intestinalis (BID × 3 d, Grade ½) | Pneumonia (BID × 3 d, Grade ½) | Renal Failure (BID × 3 d, Grade ½) | Sinusitis (BID × 3 d, Grade ½) | Small intestinal obstruction (ileus) (BID × 3 d, Grade ½) | ALT increase (BID × 3 d, Grade ¾) | AST increase (BID × 3 d, Grade ¾) | Abdominal discomfort (BID × 3 d, Grade ¾) | Abdominal distention (BID × 3 d, Grade ¾) | Albumin decreased (BID × 3 d, Grade ¾) | Alkaline phosphatase increase (BID × 3 d, Grade ¾) | Back pain (BID × 3 d, Grade ¾) | Constipation (BID × 3 d, Grade ¾) | Cough (BID × 3 d, Grade ¾) | Creatinine increased (BID × 3 d, Grade ¾) | Dizziness (BID × 3 d, Grade ¾) | Dry mouth (BID × 3 d, Grade ¾) | Dysgeusia (BID × 3 d, Grade ¾) | Dyspnea (BID × 3 d, Grade ¾) | Flatulence (BID × 3 d, Grade ¾) | Headache (BID × 3 d, Grade ¾) | Hypocalcemia (BID × 3 d, Grade ¾) | Infection (BID × 3 d, Grade ¾) | Insomnia (BID × 3 d, Grade ¾) | Mental status changes (BID × 3 d, Grade ¾) | Nausea (BID × 3 d, Grade ¾) | Peripheral edema (BID × 3 d, Grade ¾) | Pleural Effusion (BID × 3 d, Grade ¾) | Proteinurea (BID × 3 d, Grade ¾) | Pyrexia (BID × 3 d, Grade ¾) | Sinusitis (BID × 3 d, Grade ¾) | Troponin I or T increased (BID × 3 d, Grade ¾) | Urinary Tract Infection (BID × 3 d, Grade ¾) | Weight decreased (BID × 3 d, Grade ¾) | White blood cells increased (BID × 3 d, Grade ¾) | Abdominal discomfort (Daily, Grade ½) | Albumin decreased (Daily, Grade ½) | Creatinine phosphokinase increase (Daily, Grade ½) | Hepatic encephalopathy (Daily, Grade ½) | Mental status changes (Daily, Grade ½) | Pancreatitis (Daily, Grade ½) | Pneumatosis intestinalis (Daily, Grade ½) | Pneumonia (Daily, Grade ½) | Proteinurea (Daily, Grade ½) | Renal Failure (Daily, Grade ½) | Small intestinal obstruction (ileus) (Daily, Grade ½) | White blood cells increased (Daily, Grade ½) | Abdominal distention (Daily, Grade ¾) | Albumin decreased (Daily, Grade ¾) | Alkaline phosphatase increase (Daily, Grade ¾) | Back pain (Daily, Grade ¾) | Constipation (Daily, Grade ¾) | Cough (Daily, Grade ¾) | Creatinine increased (Daily, Grade ¾) | Creatinine phosphokinase increase (Daily, Grade ¾) | Dizziness (Daily, Grade ¾) | Dry mouth (Daily, Grade ¾) | Dysgeusia (Daily, Grade ¾) | Flatulence (Daily, Grade ¾) | Headache (Daily, Grade ¾) | Hepatic encephalopathy (Daily, Grade ¾) | Hyperkalemia (Daily, Grade ¾) | Insomnia (Daily, Grade ¾) | Pain (Daily, Grade ¾) | Pancreatitis (Daily, Grade ¾) | Peripheral edema (Daily, Grade ¾) | Pneumatosis intestinalis (Daily, Grade ¾) | Proteinurea (Daily, Grade ¾) | Renal Failure (Daily, Grade ¾) | Sinusitis (Daily, Grade ¾) | Urinary Tract Infection (Daily, Grade ¾) | Weight decreased (Daily, Grade ¾) | White blood cells increased (Daily, Grade ¾) | Abdominal discomfort (Weekly, Grade ½) | Albumin decreased (Weekly, Grade ½) | Cough (Weekly, Grade ½) | Creatinine phosphokinase increase (Weekly, Grade ½) | Diarrhea (Weekly, Grade ½) | Hepatic encephalopathy (Weekly, Grade ½) | Hyperkalemia (Weekly, Grade ½) | Hyponatremia (Weekly, Grade ½) | Infection (Weekly, Grade ½) | Mental status changes (Weekly, Grade ½) | Pain (Weekly, Grade ½) | Pancreatitis (Weekly, Grade ½) | Pleural Effusion (Weekly, Grade ½) | Pneumatosis intestinalis (Weekly, Grade ½) | Pneumonia (Weekly, Grade ½) | Pyrexia (Weekly, Grade ½) | Sinusitis (Weekly, Grade ½) | Small intestinal obstruction (ileus) (Weekly, Grade ½) | Vomiting (Weekly, Grade ½) | White blood cells increased (Weekly, Grade ½) | Abdominal discomfort (Weekly, Grade ¾) | Abdominal distention (Weekly, Grade ¾) | Abdominal pain (Weekly, Grade ¾) | Anorexia or decreased appetite (Weekly, Grade ¾) | Back pain (Weekly, Grade ¾) | Constipation (Weekly, Grade ¾) | Cough (Weekly, Grade ¾) | Diarrhea (Weekly, Grade ¾) | Dizziness (Weekly, Grade ¾) | Dry mouth (Weekly, Grade ¾) | Dysgeusia (Weekly, Grade ¾) | Flatulence (Weekly, Grade ¾) | Headache (Weekly, Grade ¾) | Hyperkalemia (Weekly, Grade ¾) | Hypocalcemia (Weekly, Grade ¾) | Hyponatremia (Weekly, Grade ¾) | Insomnia (Weekly, Grade ¾) | Nausea (Weekly, Grade ¾) | Pain (Weekly, Grade ¾) | Pancreatitis (Weekly, Grade ¾) | Peripheral edema (Weekly, Grade ¾) | Pneumonia (Weekly, Grade ¾) | Proteinurea (Weekly, Grade ¾) | Renal Failure (Weekly, Grade ¾) | Sinusitis (Weekly, Grade ¾) | Urinary Tract Infection (Weekly, Grade ¾) | Vomiting (Weekly, Grade ¾) | Weight decreased (Weekly, Grade ¾) | White blood cells increased (Weekly, Grade ¾)
9 (43) N (%): Vomiting (BID × 3 d, Grade ½)
6 (16) N (%): AST increase (Daily, Grade ½) | Alkaline phosphatase increase (Daily, Grade ½) | Back pain (Daily, Grade ½) | Creatinine increased (Daily, Grade ½) | Dyspnea (Daily, Grade ½) | Pain (Daily, Grade ½)
22 (58) N (%): Nausea (Daily, Grade ½)
4 (11) N (%): Abdominal distention (Daily, Grade ½) | Pyrexia (Daily, Grade ½) | Sinusitis (Daily, Grade ½) | Fatigue/Asthenia (Daily, Grade ¾) | Small intestinal obstruction (ileus) (Daily, Grade ¾)
10 (48) N (%): Anorexia or decreased appetite (BID × 3 d, Grade ½) | Any AE (Weekly, Grade ¾)
14 (67) N (%): Nausea (BID × 3 d, Grade ½)
3 (14) N (%): Abdominal distention (BID × 3 d, Grade ½) | Dehydration (BID × 3 d, Grade ½) | Pain (BID × 3 d, Grade ½) | Pyrexia (BID × 3 d, Grade ½) | Hypokalemia (BID × 3 d, Grade ¾)
7 (18) N (%): ALT increase (Daily, Grade ½) | Dizziness (Daily, Grade ½) | Insomnia (Daily, Grade ½) | Vomiting (Daily, Grade ¾)
5 (24) N (%): Abdominal pain (BID × 3 d, Grade ½) | Dyspnea (BID × 3 d, Grade ½)
2 (17) N (%): Abdominal pain (Weekly, Grade ½) | Alkaline phosphatase increase (Weekly, Grade ½) | Creatinine increased (Weekly, Grade ½) | Dehydration (Weekly, Grade ½) | Dizziness (Weekly, Grade ½) | Dysgeusia (Weekly, Grade ½) | Hyperbilirubinaemia (Weekly, Grade ½) | Hypocalcemia (Weekly, Grade ½) | Hypokalemia (Weekly, Grade ½) | Nausea (Weekly, Grade ½) | Proteinurea (Weekly, Grade ½) | Urinary Tract Infection (Weekly, Grade ½) | Weight decreased (Weekly, Grade ½) | Dehydration (Weekly, Grade ¾) | Hyperbilirubinaemia (Weekly, Grade ¾) | Troponin I or T increased (Weekly, Grade ¾)
7 (58) N (%): Anorexia or decreased appetite (Weekly, Grade ½)
11 (29) N (%): Weight decreased (Daily, Grade ½)
37 (98) N (%): Any AE (Daily, Grade ¾)
5 (13) N (%): Headache (Daily, Grade ½) | Peripheral edema (Daily, Grade ½) | Urinary Tract Infection (Daily, Grade ½) | ALT increase (Daily, Grade ¾) | Diarrhea (Daily, Grade ¾) | Nausea (Daily, Grade ¾)
6 (13) N (%): AST increase (Daily, Grade ¾)
